EC50, CC50 and AC50 data for twelve compounds are collected here from ChEMBL document CHEMBL1201862, “PubChem BioAssay data set” (2004).

Structures are written as SMILES. The source made the active and inactive calls. For most assays here, no stated cut-off is given here; in the data, actives have a measured EC50 and inactives only a lower limit.

Assay [1] has as its target Peroxisome proliferator-activated receptor gamma/Nuclear receptor coactivator 2 (Homo sapiens, UniProt P37231). The assay is classed as functional.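 Further: agonist potency for raising coactivator recruitment to the receptor.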
Assay [2] concerns the target Peroxisome proliferator-activated receptor gamma/Nuclear receptor coactivator 1 (Homo sapiens, UniProt P37231). The assay is classed as functional.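 Further: agonist potency as compounds enhance coactivator SRC-1 recruitment to PPARgamma.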
For assay [3], the target named is Peroxisome proliferator-activated receptor gamma/Nuclear receptor coactivator 3 (Homo sapiens, UniProt P37231). The assay is classed as functional.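 Further: agonist potency for raising coactivator recruitment to the receptor.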
Assay [4] in a line: Luminescence Cell-Based Dose Response HTS to Identify Activators of Luciferase Translation or Activity in H4 […] Cells. [Related pubchem assays: 1829 (Project Summary), 1814 (Primary HTS)]. Type of assay: functional.
A short description of assay [5]: Luminescence Cell-Based Dose Confirmation HTS to Identify Activators of 5'UTR Stem-Loop Driven Alpha-Synuclein mRNA Translation in H4 Neuroglioblastoma Cells. [Related pubchem assays: 1829 (Project Summary), 1814 (Primary HTS)]. Type of assay: functional.
For assay [6], the system named is H4. The experiment in a line: Luminescence Cell-Based Dose Response HTS to Identify Activators of 5'UTR Stem-Loop Driven Prion Protein mRNA Translation in H4 Neuroglioblastoma Cells. [Related pubchem assays: 1829 (Project Summary), 1814 (Primary HTS)]. The assay is classed as functional. To be noted: Homo sapiens.
Assay [7] in a line: viability of uninfected HEp-2 cells – cell-based, HTS, cytotoxicity control for RSV inhibitor project, dose response (AID 2410). Type of assay: functional. To be noted: human respiratory syncytial virus.
For assay [8], the target named is T1, Protein RecA (Mycobacterium tuberculosis, UniProt P9WHJ3).
T1 sequence (P9WHJ3 whole entry): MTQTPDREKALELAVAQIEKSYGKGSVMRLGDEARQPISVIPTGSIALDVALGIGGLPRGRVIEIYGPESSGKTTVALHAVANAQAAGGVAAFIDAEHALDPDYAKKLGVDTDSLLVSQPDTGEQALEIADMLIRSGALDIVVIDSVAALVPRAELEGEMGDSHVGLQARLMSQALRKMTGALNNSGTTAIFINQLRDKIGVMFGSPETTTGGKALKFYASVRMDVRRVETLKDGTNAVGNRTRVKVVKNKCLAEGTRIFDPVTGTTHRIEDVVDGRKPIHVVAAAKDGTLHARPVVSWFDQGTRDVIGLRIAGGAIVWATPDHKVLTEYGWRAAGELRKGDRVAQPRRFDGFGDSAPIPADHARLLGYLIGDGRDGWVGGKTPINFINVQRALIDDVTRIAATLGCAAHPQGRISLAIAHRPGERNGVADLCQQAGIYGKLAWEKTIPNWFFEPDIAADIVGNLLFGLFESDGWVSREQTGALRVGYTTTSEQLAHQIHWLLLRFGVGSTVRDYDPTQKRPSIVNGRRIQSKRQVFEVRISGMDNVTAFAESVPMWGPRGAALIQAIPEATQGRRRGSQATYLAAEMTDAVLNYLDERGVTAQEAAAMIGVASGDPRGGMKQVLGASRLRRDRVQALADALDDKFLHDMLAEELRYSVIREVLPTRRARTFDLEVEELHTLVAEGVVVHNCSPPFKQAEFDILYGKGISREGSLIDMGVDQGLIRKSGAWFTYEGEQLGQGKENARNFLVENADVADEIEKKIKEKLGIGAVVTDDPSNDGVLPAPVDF
The experiment in a line: Fluorescence Cell-Free Homogeneous Dose Retest to Identify Inhibitors of RecA-Intein Splicing Activity. [Related pubchem assays (depositor defined):AID2097, AID2223, AID489010, AID492950]. Type of assay: functional.

Assay [9] concerns the target T2, Replicative DNA helicase DnaB (Mycobacterium tuberculosis, UniProt P9WMR3).
T2 sequence (P9WMR3 whole entry): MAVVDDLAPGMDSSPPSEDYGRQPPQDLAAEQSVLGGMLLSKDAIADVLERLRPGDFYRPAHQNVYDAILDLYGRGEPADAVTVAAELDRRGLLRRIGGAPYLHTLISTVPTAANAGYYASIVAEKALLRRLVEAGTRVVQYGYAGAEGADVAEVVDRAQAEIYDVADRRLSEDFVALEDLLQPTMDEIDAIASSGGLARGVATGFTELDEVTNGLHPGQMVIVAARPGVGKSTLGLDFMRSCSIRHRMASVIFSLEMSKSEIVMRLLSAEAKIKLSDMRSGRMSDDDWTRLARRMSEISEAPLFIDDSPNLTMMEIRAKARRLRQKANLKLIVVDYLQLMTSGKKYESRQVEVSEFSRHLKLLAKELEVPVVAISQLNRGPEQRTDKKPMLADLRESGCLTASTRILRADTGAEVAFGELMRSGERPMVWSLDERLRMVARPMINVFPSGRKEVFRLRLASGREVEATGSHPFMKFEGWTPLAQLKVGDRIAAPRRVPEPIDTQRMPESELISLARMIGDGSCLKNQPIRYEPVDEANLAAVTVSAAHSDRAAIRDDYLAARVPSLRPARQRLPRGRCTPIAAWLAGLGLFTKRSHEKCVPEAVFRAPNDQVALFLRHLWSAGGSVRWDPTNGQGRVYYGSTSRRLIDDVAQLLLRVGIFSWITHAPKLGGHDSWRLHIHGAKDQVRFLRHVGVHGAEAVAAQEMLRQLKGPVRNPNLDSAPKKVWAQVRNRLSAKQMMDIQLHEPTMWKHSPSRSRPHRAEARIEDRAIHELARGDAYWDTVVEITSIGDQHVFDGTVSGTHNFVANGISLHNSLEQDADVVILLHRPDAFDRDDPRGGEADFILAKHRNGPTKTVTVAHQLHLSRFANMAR
Put plainly: DnaB intein splicing inhibitors, dose response, biochemical, cell-free fluorescence (AID 449749). Type of assay: functional.

Assay [10] has as its target T3, RNA-binding protein pos-1 (Caenorhabditis elegans, UniProt G5EF15).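 Further: purified POS-1 fused to maltose binding protein made in E. coli; potency of compounds blocking POS-1 binding to fluorescent RNA.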
T3 sequence (G5EF15 whole entry): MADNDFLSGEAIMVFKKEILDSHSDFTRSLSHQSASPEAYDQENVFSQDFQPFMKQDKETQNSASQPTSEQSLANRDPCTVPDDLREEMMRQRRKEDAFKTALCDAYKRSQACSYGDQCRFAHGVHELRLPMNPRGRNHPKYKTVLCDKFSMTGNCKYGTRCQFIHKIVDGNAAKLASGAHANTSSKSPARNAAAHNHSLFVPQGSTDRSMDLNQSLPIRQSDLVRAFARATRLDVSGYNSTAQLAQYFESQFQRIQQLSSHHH
Put plainly: disruptors of C. elegans POS-1 RNA interaction – biochemical, fluorescence polarization, dose response (AID 1964). (In general: In fluorescence polarisation assays a small probe gives low polarisation when free and higher when bound to something large.)

The nature of assay [11]: NIH3T3 cell viability loss – ATP luminescence, mouse fibroblasts, counter-screen, dose response (AID 2010).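 Further: cells exposed to compound for about 90 hours before reading.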 The assay is classed as functional, cell-based.
A short description of assay [12]: Trypanosoma cruzi growth suppression in host cells – NIH3T3 host cells, beta-gal luminescence, confirmation (AID 2044).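 Further: intracellular parasites grown in NIH/3T3 mouse fibroblasts as host cells; luminescent beta-galactosidase reporter signal from transgenic T. cruzi replicating inside host cells; inhibitors lower the luminescence signal.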 The assay is classed as functional, cell-based.
For assay [13], the target named is T4, Zinc finger protein mex-5 (Caenorhabditis elegans, UniProt Q9XUB2).
T4 sequence (Q9XUB2 whole entry): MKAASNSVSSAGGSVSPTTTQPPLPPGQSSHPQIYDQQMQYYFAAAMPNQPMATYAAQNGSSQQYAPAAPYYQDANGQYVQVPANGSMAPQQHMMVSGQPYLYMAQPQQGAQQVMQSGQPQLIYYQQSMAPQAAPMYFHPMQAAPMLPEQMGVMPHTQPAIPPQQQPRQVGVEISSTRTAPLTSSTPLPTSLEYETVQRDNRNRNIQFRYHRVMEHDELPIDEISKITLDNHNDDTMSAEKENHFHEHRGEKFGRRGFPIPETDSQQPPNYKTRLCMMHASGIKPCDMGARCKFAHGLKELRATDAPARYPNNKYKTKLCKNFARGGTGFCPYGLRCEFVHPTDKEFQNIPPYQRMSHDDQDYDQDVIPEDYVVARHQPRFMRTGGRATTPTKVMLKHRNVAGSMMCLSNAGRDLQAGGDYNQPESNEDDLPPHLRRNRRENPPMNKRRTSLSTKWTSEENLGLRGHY
Put plainly: potency of MEX-5 RNA-binding blockers – biochemical, C. elegans, fluorescence polarization, dose response (AID 1960).

Assay [14] in a line: viability of HCT116 lacking mutant beta-catenin – cell-based, human colon tumor, dose response (AID 1045).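 Further: HCT116 colon tumor cells with beta catenin knocked out; cells exposed to compound for 60 hours.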 Type of assay: functional.
Assay [15] is described as follows: viability of PTEN-deleted HCT116 cells – cell-based, HCT116 PTEN knockout, dose response (AID 1047).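 Further: HCT116 colon tumor cells with PTEN knocked out; cells exposed to compound for 60 hours before readout; potency for loss of cell viability measured by luminescence.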 The assay is classed as functional.

Sequence of Peroxisome proliferator-activated receptor gamma/Nuclear receptor coactivator 2 (P37231 whole entry): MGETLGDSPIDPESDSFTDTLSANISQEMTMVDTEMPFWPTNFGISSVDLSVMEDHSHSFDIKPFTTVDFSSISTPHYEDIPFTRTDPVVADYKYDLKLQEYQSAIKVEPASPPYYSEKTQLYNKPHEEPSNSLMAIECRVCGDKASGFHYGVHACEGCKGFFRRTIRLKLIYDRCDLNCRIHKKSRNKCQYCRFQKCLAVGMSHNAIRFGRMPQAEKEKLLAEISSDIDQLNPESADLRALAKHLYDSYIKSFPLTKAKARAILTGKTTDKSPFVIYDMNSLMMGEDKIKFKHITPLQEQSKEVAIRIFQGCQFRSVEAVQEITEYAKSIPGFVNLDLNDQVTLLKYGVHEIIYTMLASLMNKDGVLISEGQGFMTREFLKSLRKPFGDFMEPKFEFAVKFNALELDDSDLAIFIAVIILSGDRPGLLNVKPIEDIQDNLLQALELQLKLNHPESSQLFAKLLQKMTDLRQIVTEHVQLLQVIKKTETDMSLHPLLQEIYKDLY
Sequence of Peroxisome proliferator-activated receptor gamma/Nuclear receptor coactivator 2 (Q15596 whole entry, further chain): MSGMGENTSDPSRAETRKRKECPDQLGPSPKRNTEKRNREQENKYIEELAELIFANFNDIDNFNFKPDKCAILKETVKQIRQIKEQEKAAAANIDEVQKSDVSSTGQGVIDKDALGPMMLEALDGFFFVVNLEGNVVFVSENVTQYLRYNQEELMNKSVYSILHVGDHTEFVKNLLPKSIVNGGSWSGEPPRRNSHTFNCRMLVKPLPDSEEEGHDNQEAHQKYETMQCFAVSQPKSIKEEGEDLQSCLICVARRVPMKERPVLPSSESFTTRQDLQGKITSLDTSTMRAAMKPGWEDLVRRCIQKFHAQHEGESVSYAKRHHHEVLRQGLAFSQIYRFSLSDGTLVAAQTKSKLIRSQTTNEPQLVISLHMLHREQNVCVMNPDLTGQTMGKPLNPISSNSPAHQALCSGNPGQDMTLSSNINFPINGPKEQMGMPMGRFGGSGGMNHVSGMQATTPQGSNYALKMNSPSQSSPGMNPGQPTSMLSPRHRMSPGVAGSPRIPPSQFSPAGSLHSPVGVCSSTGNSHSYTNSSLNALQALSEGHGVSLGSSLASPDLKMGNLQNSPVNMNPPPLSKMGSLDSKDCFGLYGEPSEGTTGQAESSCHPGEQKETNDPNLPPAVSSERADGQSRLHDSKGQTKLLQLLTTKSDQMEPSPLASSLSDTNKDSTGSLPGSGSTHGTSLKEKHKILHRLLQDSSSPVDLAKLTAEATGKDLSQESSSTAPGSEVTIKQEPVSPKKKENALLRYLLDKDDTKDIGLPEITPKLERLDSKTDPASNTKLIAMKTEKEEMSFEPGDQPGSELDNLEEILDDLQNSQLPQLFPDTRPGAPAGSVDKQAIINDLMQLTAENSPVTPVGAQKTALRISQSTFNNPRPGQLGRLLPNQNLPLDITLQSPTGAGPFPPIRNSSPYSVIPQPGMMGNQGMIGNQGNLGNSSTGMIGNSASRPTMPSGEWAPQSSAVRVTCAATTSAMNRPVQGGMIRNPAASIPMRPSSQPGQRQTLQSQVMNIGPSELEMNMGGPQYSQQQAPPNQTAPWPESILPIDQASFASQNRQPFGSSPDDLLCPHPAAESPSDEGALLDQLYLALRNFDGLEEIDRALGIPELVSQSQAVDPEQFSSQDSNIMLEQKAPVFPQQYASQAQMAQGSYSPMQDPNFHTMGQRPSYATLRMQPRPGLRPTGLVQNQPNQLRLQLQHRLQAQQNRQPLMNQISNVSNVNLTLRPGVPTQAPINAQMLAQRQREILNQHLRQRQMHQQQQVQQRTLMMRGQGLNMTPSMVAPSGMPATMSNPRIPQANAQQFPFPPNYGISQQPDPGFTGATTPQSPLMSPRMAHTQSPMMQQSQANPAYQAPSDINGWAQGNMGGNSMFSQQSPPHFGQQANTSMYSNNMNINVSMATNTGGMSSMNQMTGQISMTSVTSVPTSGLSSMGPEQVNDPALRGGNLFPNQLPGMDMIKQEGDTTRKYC
Sequence of Peroxisome proliferator-activated receptor gamma/Nuclear receptor coactivator 1 (P37231 whole entry): as the sequence (P37231 whole entry) above
Sequence of Peroxisome proliferator-activated receptor gamma/Nuclear receptor coactivator 1 (Q15788 whole entry, further chain): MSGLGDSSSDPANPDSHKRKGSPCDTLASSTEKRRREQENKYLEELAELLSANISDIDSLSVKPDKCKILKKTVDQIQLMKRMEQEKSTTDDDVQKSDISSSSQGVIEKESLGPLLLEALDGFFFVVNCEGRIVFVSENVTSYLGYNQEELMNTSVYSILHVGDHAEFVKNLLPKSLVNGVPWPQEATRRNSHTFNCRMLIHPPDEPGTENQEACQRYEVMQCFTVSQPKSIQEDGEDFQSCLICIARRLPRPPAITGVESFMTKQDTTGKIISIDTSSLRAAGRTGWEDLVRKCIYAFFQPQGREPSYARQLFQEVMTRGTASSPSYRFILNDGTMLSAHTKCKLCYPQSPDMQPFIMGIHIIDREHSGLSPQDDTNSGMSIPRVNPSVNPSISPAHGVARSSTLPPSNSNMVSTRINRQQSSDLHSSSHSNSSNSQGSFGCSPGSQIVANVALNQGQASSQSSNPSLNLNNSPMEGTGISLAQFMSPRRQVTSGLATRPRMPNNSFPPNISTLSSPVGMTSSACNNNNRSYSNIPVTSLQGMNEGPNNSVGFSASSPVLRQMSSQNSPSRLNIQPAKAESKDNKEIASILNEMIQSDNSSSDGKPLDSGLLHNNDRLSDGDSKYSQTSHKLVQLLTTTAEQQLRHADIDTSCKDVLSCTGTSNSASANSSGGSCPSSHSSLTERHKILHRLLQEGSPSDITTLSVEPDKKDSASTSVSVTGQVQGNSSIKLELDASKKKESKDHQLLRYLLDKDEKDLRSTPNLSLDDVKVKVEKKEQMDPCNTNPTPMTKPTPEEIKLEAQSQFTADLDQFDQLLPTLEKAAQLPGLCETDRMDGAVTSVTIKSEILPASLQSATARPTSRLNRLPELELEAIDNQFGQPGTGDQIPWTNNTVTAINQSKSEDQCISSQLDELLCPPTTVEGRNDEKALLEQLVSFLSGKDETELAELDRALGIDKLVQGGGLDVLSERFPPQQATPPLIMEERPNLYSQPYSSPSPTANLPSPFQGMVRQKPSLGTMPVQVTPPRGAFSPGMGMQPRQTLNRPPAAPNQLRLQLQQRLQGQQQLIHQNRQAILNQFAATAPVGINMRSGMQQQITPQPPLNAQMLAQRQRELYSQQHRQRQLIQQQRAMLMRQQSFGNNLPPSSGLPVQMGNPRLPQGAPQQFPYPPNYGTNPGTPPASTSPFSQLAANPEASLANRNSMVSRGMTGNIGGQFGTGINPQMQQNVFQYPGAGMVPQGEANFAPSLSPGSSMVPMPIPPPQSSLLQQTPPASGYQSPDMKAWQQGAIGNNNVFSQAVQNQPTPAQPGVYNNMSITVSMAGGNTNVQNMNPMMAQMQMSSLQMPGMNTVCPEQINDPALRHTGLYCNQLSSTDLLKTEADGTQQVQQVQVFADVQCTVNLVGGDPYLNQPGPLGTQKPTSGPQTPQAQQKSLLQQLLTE

Usually EC50 stands for the concentration that produces a half-maximal response. Turning to `CC(C)(C)NC(=O)CSc1nc(O)cc(=O)n1-c1ccccc1F`, the EC50 in assay [1], in assay [2] and in assay [3] was > 79.4 µM (not active) throughout.

In the case of `CCCc1ccc2oc(C(=O)NCCCN3CCOCC3)c(C)c2c1`, the EC50 in [4] was 30.8 µM (active); in assay [5] it was 18.7 µM (active); in [6], 53.7 µM (active).

Take `Cc1ccc(NC(=O)c2cn(-c3cccc(C)n3)cn2)cc1`: the EC50 in assay [4] was 0.269 µM (active); in assay [5], 0.157 µM (active); in assay [6] it was > 120 µM (not active).

One may read the CC50 as the concentration at which the toxic effect on the cells reaches its halfway point. For `C#CCn1/c(=N/C(=O)c2ccc(Cl)s2)sc2cccc(OC)c21`, the values for the EC50 in assay [1], in [2] and in [3] were 12.8 µM (not active), 18.4 µM (not active) and 21.5 µM (not active), respectively. For the same compound, the CC50 in assay [7] is 19.1 µM (active).

As for `COc1ccc(-c2noc(Cc3ccccc3OC)n2)cc1`, the EC50 in assay [1], in assay [2] and in assay [3] was > 79.4 µM (not active) each time.

The AC50 is the concentration giving half of the maximal activity seen. For `CCCOc1cccc(-c2nc3ccccc3c(=O)o2)c1`, the EC50 in [4] was 16.3 µM (active); in assay [8] it was 6.81 µM (active); in assay [5], 26.3 µM (active). For the same compound, the AC50 in [9] was 9.46 µM (active).

As to `O=C(c1cccc(C(F)(F)F)c1)N1CCN(c2cc(O)nnc2-c2ccccc2)CC1`, the EC50 in assay [1], in [2] and in assay [3] was > 79.4 µM (not active) in each case.

In the case of `N#Cc1c(NC(=O)C2CC2)sc2c1CCCCC2`, the results for the EC50 in assay [4], in [5] and in assay [6] were 81.4 µM (active), 34.7 µM (active) and > 120 µM (not active), respectively.

As for `CCN1CCc2c(sc(NC(=O)c3ccc4ccccc4c3)c2C(N)=O)C1`, the EC50 in assay [4] was 7.69 µM (active); in assay [10] it was 45.5 µM (active); in assay [11], 16.8 µM (active); in assay [5], 36.5 µM (active); in assay [12], 2.47 µM (active); in assay [6] it was > 60 µM (not active). In addition, in [13], the EC50 was > 300 µM (inconclusive).

Consider `COc1ccc(-c2nnc(Sc3nc4ccccc4o3)c3ccccc23)cc1`, for which the EC50 in assay [8] is 0.703 µM (active); in assay [14], 16.2 µM (active); in assay [15], 18.3 µM (active). Further, in assay [9], the AC50 is 3.8 µM (active).

`CC(C)(C)c1ccc(-c2nnc3sc(-c4ccncc4)nn23)cc1`: the EC50 in assay [1], in [2] and in [3] was > 79.4 µM (not active) throughout.

Turning to `c1ccc(SCc2nc(-c3ccncc3)no2)cc1`, the results for the EC50 in [4], in assay [5] and in assay [6] were 25.8 µM (active), 14.8 µM (active) and 10.1 µM (active), respectively.
